Experimental data: patent publication US20020168417A1, “Agrochemical compositions and surfactant compounds” (priority 1999, published 2002)
Like-named read-outs stand apart in the source and are kept apart here.

Columns and labels:
[1] = in vivo
Description: (§1) The irritancy of the products of some of the synthesis examples (if necessary after purification) was tested using standard testing protocols.

[2] = in vivo; remark: listed apart in the source
Description: as §1

Daphnia magna = experiment: aquatic toxicity to Daphnia magna, standard bio-assay; format: in vivo; conditions: end of the 48 hour assay procedure
Description: The results are given below:

[3] = system: fungal leaf rust (Puccinia recondite); experiment: AE5 field trial, tebuconazole fungicide with adjuvant on winter wheat leaf rust; format: in vivo; conditions: infected leaf area
Description: Field trials were carried out to test the effectiveness of fungicide on winter wheat (variety Versailles) using the active Horizon EW (tebuconazole) (250 g.I^−1) in the control of fungal leaf rust (Puccinia recondite). The plots were sprayed at a spray volume 300 I.ha^−1, with the adjuvants added as tank mix additives at a concentration of 0.1% weightivolume on the spray. The normal application rate (NAR) for Horizon alone is 1 I.ha^−1 (250 g.ha^−1) and this was used as a control together with 0.75 I.ha^−1 (187.5 g.ha^−1; […]). An untreated control was also included. For these trials, adjuvant containing formulations were at ¾ NAR for the active and 0.1% weight/volume (300 g.ha^−1) adjuvant The effect of the spraying was assessed 3 weeks after treatment and is expressed as % infected leaf area (2 and 3 top leaves).

[4] = irritancy, standard testing protocols: eye; conditions: in vivo
Description: as §1

[5] = irritancy, standard testing protocols: skin; conditions: in vivo
Description: as §1

[6] = tebuconazole 187.5 g · ha^−1, adjuvant (where used) 300 g · ha^−1, 3 weeks after treatment
[7] = tebuconazole 250 g · ha^−1, adjuvant (where used) 300 g · ha^−1, 3 weeks after treatment

Molecule | Irritation assessment Skin [1] | Irritation assessment Eye [2] | EC50 for immobilising the Daphnia (Daphnia magna) [mg.I^−1] | other results
1-(N,N-bis(N-1-deoxyglucitylamino)amonium)-2-hydroxy-3-dodecyloxy Propane Sulphate [SE25] | slight | moderate | – | –
1-(N-1-deoxyglucitylamino)2-hydroxyl-3-(branched octadecyloxy poly-10PO-10EO) propane [SE21] | slight/moderate | practically none/slight | 31.4 | –
CC(C)(C)C(O)(CCc1ccc(Cl)cc1)Cn1cncn1 (racemic) [tebuconazole, (RS)1-p-chlorophenyl4,4-dimethyl-3-(1H-1,2,4triazole-1-ylmethyl)-pentan-3ol] | – | – | – | % infected 2 leaf [3, 6]: 2.5%; % infected 3 leaf [3, 6]: 10%; % infected 2 leaf [3, 7]: 2.5%; % infected 3 leaf [3, 7]: 2.5%
CCCCCCCCCCOCC(O)CN(C)C[C@H](O)[C@@H](O)[C@H](O)[C@H](O)CO (some centres unmarked) [SE10, 1-(N-methyl-N-1-deoxyglucitylamino)2-hydroxy-3-decyloxy propane] | practically none | moderate/severe | – | –
CCCCCCCCCCCCCCOCC(O)CN(CC(O)C(O)C(O)C(O)CO)CC(O)C(O)C(O)C(O)CO (centres unmarked) [SE20, 1-(N-bis-sorbitylamino)2-hydroxyl-3-tetradecyloxy propane] | – | – | >100 | –
Betaine from 1-(N-1-deoxyglucitylamino)-2-hydroxy-3-dodecyloxy Propane [SE23] | – | – | – | Irritation assessment Eye [4]: moderate; Irritation assessment Skin [5]: slight
